From patent US5312816A, “Method of combatting osteoporosis in mammalian subjects, utilizing organic boron compounds” (priority 1993, dated 1994) come the findings set out here.

Test [1] deals with Prostaglandin cyclooxygenase. Put plainly: Mouse macrophage prostaglandin cyclooxygenase activity. The conditions noted are these: Table VIII; mouse macrophages, 60 min incubation; read-out: Prostaglandin Cyclooxygenase IC50. The class given is cell-based. From the text: 3. Mouse macrophages J774A.1 BALB/c
(§1) Prostaglandin synthetase purified beef seminal vesicle ^3 H arachidonic acid (86.2 Ci/mmol), tlc separation.

The next test concerns the target T1, Cathepsin D (Homo sapiens, UniProt P07339).
T1 construct: azocasein assay pH 5.0
The test can be described thus: Human osteoporosis fibroblasts cathepsin D (azo-casein) activity. Format: cell-based.

The next test concerns Hydroxyproline. Put plainly: Serum and urine hydroxyproline levels in vivo. The note with it: Cf1 male mice, 8 mg/kg/day I.P. 14 days, N=6.
In test [2] the target is T2, Porcine Pancreatic Elastase (Sus scrofa, UniProt P00772).
T2 construct: purchased; host or cells: porcine pancreas
The test can be described thus: Porcine pancreatic elastase activity in vitro. The class given is biochemical. The conditions noted are these: Table IX; commercial enzyme preparation. From the text:
2. Elastase- N-succinyl-L-alanyl-L-alanine-p-nitroanilide, pH 8.0, p-nitro anilide 410 nm.

The test system of the next test is Calcium. Put plainly: Serum and urine calcium levels in vivo. The conditions noted are these: Cf1 male mice, 8 mg/kg/day I.P. 14 days, N=6.
Another test addresses T3, Prostaglandin synthetase (Bos taurus, UniProt O62664).
T3 construct: Prostaglandin synthetase purified beef seminal vesicle; from tissue
T3 sequence (O62664 25-600): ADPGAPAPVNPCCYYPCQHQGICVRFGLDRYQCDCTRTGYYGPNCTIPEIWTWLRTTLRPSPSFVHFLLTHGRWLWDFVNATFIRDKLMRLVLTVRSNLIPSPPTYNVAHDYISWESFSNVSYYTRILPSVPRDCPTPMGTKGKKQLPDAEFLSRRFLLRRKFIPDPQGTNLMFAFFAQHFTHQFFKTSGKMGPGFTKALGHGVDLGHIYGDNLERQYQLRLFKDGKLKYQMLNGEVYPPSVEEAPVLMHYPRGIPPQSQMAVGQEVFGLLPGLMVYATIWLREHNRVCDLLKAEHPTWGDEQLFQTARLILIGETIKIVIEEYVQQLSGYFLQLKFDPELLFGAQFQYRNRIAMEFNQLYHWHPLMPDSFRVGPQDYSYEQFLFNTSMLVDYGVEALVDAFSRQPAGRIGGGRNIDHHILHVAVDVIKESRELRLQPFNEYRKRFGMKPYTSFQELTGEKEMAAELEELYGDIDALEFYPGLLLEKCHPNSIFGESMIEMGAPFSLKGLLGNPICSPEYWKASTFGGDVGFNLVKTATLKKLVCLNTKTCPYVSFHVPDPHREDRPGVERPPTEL
The test can be described thus: Prostaglandin synthetase (cyclooxygenase), purified beef seminal vesicle. Format: biochemical. The note with it: Table IX; commercial enzyme preparation; read-out: Beef Prostaglandin Cyclooxygenase IC50.
Text: as §1

Each structure is given as a SMILES string. Where two headings read alike, the source gives them in different places.

T1 sequence (P07339 65-412): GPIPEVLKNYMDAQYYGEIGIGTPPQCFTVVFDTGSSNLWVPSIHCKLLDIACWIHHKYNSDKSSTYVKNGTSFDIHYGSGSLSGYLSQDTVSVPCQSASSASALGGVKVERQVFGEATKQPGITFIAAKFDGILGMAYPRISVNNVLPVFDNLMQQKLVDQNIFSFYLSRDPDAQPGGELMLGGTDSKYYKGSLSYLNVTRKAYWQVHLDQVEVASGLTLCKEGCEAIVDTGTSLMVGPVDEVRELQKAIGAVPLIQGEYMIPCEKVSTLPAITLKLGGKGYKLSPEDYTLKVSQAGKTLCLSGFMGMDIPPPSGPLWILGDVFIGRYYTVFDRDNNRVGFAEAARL
T2 sequence (P00772 27-266): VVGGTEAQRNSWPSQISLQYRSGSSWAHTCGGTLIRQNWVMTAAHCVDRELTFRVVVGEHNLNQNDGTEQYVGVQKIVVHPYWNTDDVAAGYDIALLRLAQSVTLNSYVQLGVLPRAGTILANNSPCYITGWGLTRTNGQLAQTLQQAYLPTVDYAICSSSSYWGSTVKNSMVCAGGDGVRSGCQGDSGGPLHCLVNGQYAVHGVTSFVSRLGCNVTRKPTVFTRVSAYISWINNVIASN
Text for Cathepsin D: Osteoporosis Human Fibroblast-CRL-1140, Be SA1
Acid Cathepsin D -azocasein-pH 5.0, hydrolytic azo-peptide produce 366 nm.

On to `CCCCCCCCCCCCCCCC[N+](C)(C)[BH2-]C(=O)O` [Compound 7, N,N-Dimethylhexadecylamine-carboxyborane], for which the IC50 in test [1] is 2550 nM; on Cathepsin D (Table VIIIA, osteoporosis fibroblasts in vitro, read-out: Cathepsin Azo-casein IC-50), 2060 nM; on Cathepsin D (Table X, human osteoporosis fibroblasts, DMEM +10% FCS + P/S, read-out: Cathepsin D IC50), 2060 nM; in test [2], 49700 nM; on Prostaglandin synthetase it was 2860 nM. This compound also came in with a Hydroxyproline serum in the test with Hydroxyproline of 84.1 % Control. Further, the Hydroxyproline urine in the test on Hydroxyproline worked out at 28.7 % Control. For the same compound, in the test with Calcium, the Calcium urine is reported as 80.7 % Control.
